Values quoted from earlier work, collected in US6627427B1, “Heterologous production of 15-methyl-6-deoxyerthronolide B” (Kosan Biosciences, Inc., priority 1999, dated 2003).

Experiments:
Gram-positive pathogens = settings: including those carrying inducible MLS resistance and many S. pneumoniae and S. pyogenes strains carrying constitutive MLS resistance
[1] = statement with reference to PCT publications

Row | SMILES | activity against Gram-positive pathogens (Gram-positive pathogens) | antibiotic activity [1]
1 | CC[C@H]1OC(=O)[C@H](C)C(=O)[C@H](C)[C@@H](O[C@@H]2O[C@H](C)C[C@H](N(C)C)[C@H]2O)[C@](C)(OC/C=C/c2cnc3ccccc3c2)C[C@@H](C)C(=O)[C@H](C)[C@H]2NC(=O)O[C@@]21C [ABT-773] | excellent activity | 
2 | CC[C@H]1OC(=O)[C@H](C)C(=O)[C@H](C)[C@@H](O[C@@H]2O[C@H](C)C[C@H](N(C)C)[C@H]2O)[C@](C)(OC)C[C@@H](C)C(=O)[C@H](C)[C@H]2N(CCCCn3cnc(-c4cccnc4)c3)C(=O)O[C@]12C [HMR 3647] | excellent activity | 
3 | CCC[C@H]1OC(=O)[C@H](C)[C@@H](O[C@@H]2C[C@@](C)(OC)[C@@H](O)[C@H](C)O2)[C@H](C)[C@@H](O[C@@H]2O[C@H](C)C[C@H](N(C)C)[C@H]2O)[C@](C)(O)C[C@@H](C)C(=O)[C@H](C)[C@@H](O)[C@]1(C)O [Propyl erythromycin A, 15-methylerythromycin A] |  | potent antibiotic activity
